{
  "source": "patent US20110065749A1",
  "about": "“METHOD AND PHARMACEUTICAL COMPOSITION FOR TREATMENT OF MENTAL DISORDERS” (ACTIVE CO. LTD., priority 2008, published 2011)",
  "key": {"Refractory Depression": {"tested_on": "Refractory Depression", "assay": "Case 2: refractory depression patient, HAMD", "assay_type": "in vivo, human", "description": "For evaluation of the state of depression, for example, Hamilton's rating scale for depression (HAMD) is available. The HAMD was developed by Max Hamilton in 1960 for the purpose of measuring the severity of a patient diagnosed with depression (Hamilton, M., Journal of Neurology, Neurosurgery & Psychiatry, 23-56-62 (1960) and Hamilton, M., “Development of rating scale for primary depressive illness”, British Journal of Social and Clinical Psychology, 6: 278-296 (1967)). In view of its high usefulness, it is a representative scale of evaluation for depression, widely used in clinical researches and practices. The 17 item version is used for clinical trials of antidepressants in Japan, whereas the 21 item version and the 24 item version are used in Europe or other countries. When the severity is calculated using Hamilton's rating scale for depression (HAMD), each item is evaluated with three grades of 0-2, or five grades of 0-4. For example, the case is diagnosed as severe where the point is 20 or higher and, as the point decreases, the symptom is diagnosed as being improved. Case 2: Refractory Depression Patient was a person, who was unresponsive to any combination of SSRIs, SNRIs, tricyclic antidepressants, and antianxiety agents in their respective maximum doses. The score of HAMD was 23 points. […] Increasing the dose of Cephadol® to 150 mg/day improved the score of HAMD to 3 points. The improvement lasted even after other antidepressants were removed. Even 3 months later, the score of HAMD was still 3 points. When the dose of Cephadol® was reduced to 75 mg/day, the score of HAMD became 13 points after one week."}, "[1]": {"tested_on": "manic state of bipolar I disorder", "assay": "Case 3: manic-depressive illness patient", "assay_type": "in vivo, human", "procedure": "Case 3: Manic-Depressive Illness Patient was a person, who had continuously been in a manic state of bipolar I disorder for over one month. An antiepileptic drug, or 1,200 mg of Limas®, was ineffective. Antipsychotic drugs were not usable due to significant side effects. […] When they discontinued the administration of Cephadol®, the manic state appeared after 5 days."}, "Bulimia [2]": {"tested_on": "Bulimia", "assay": "Case 7: bulimia (1) patient", "assay_type": "in vivo, human", "conditions": "150 mg/day", "description": "Patient was a person, who had been suffering from bulimia. Antidepressant, antianxiety, and other drugs were all ineffective. […] The effect of Cephadol® appeared in about two days."}, "Bulimia [3]": {"tested_on": "Bulimia", "assay": "Case 8: bulimia (2) patient", "assay_type": "in vivo, human", "conditions": "150 mg/day", "description": "Patient was a person, who had been suffering from bulimia. The bulimia persisted even after their marriage and childbearing."}, "Insomnia": {"tested_on": "Insomnia", "assay": "Case 11: insomnia in an elderly person", "assay_type": "in vivo, human", "procedure": "Case 11: Insomnia in an Elderly Person A person had had no history of insomnia or depression before they retired from their company at mandatory retirement age. […] Being seriously distressed by insomnia, they had been prescribed hypnotics at two or three mental clinics. The hypnotics had made them easily fall down when going to the bathroom at night, and made them feel half awake in the morning, with memory impairment. The patient was started on 50 mg Cephadol® twice a day (after dinner and before sleeping)."}, "Schizophrenia": {"tested_on": "Schizophrenia", "assay": "Case 12: schizophrenia patient", "assay_type": "in vivo, human", "conditions": "150 mg/day", "description": "A person had been diagnosed with schizophrenia and had received antipsychotic drugs. In spite of the treatment with newest antipsychotic drugs, the dullness of thinking, depression, and obesity of the patient were not improved."}, "Fibromyalgia": {"tested_on": "Fibromyalgia", "assay": "Case 16: fibromyalgia (2) patient", "assay_type": "in vivo, human", "description": "[…] There were persistent systemic malaise, lassitude, depressed mood, sleeplessness, neck stiffness and systemic pain. Their score of depression on Hamilton D scale was 25 to 28. No hematological abnormality was detected. As a result of overall judgment based on examinations including a tender point examination, they were diagnosed as having fibromyalgia. They were unresponsive to tricyclic or tetracyclic antidepressants, SSRIs, SNRIs, and Moclobemide. Then, they continued the treatment with 60 mg/day fluoxetine. […] It was concluded that the onset of their depression was due to the systemic pain, and the depression was improved by the drastic improvement of the systemic pain."}, "[4]": {"tested_on": "evoked potential of hypothalamus by vestibular nuclei stimulation", "conditions": "rat experiments; cited from earlier work"}, "[5]": {"tested_on": "nystagmus by experimental disorder of balance function", "conditions": "rabbit experiments; cited from earlier work"}, "[6]": {"conditions": "50 mg twice a day, hypnotics halved"}},
  "note": "Structures can show the parent of a compound that is named as a salt.",
  "data": [
    {"compound": "OC(CCCN1CCCCC1)(c1ccccc1)c1ccccc1", "note": "[Cephadol®, 1,1-diphenyl-4-piperidine-1-ylbuthan-1-ol monohydrochloride]", "values": [
      {"measurement": "depressive symptom", "setting": "Refractory Depression; 75 mg/day, HAMD 23 points before", "value": "significant improvement"},
      {"measurement": "score of HAMD", "setting": "Refractory Depression; 150 mg/day, 3 months later, other antidepressants removed", "value": 3, "unit": "points"},
      {"measurement": "side effects", "setting": "Refractory Depression; 75-150 mg/day", "value": "no side effects"},
      {"measurement": "score of HAMD", "setting": "Refractory Depression; dose increased to 150 mg/day, 23 points before", "value": 3, "unit": "points"},
      {"measurement": "score of HAMD", "setting": "Refractory Depression; dose reduced to 75 mg/day, after one week", "value": 13, "unit": "points"},
      {"measurement": "effect on the disease (manic state)", "setting": "[1]; 150 mg/day", "value": "significant amelioration of the disease"},
      {"measurement": "side effects", "setting": "[1]; 150 mg/day", "value": "no side effects"},
      {"measurement": "time until the manic state appeared after discontinuation", "setting": "[1]; after discontinuation of 150 mg/day", "value": 5, "unit": "days"},
      {"measurement": "side effects", "setting": "Bulimia [2]", "value": "no side effects"},
      {"measurement": "overeating", "setting": "Bulimia [2]; previously two to three times a day", "value": "significantly improved overeating"},
      {"measurement": "duration of the effect", "setting": "Bulimia [3]", "value": "more than two"},
      {"measurement": "overeating", "setting": "Bulimia [3]", "value": "stopped their overeating"},
      {"measurement": "side effects", "setting": "Bulimia [3]; more than two months", "value": "without any side effects"},
      {"measurement": "dose of concomitant hypnotics", "setting": "Insomnia; 50 mg twice a day", "value": "reduced in dose by half"},
      {"measurement": "side effects", "setting": "Insomnia; 50 mg twice a day", "value": "no side effects"},
      {"measurement": "sleep", "setting": "Insomnia; 50 mg twice a day (after dinner and before sleeping)", "value": "became able to sleep well"},
      {"measurement": "memory impairment on the next morning", "setting": "Insomnia; [6]", "value": "without memory impairment"},
      {"measurement": "staggering gait on awaking at night", "setting": "Insomnia; [6]", "value": "free from staggering gait on awaking at night"},
      {"measurement": "appetite and body weight", "setting": "Schizophrenia", "value": "reduced their appetite and body weight"},
      {"measurement": "side effects and relapse of schizophrenia", "setting": "Schizophrenia", "value": "no side effects, nor relapse of schizophrenia"},
      {"measurement": "thinking speed and depression", "setting": "Schizophrenia", "value": "improved their subjective and objective thinking speed and depression"},
      {"measurement": "score of Hamilton D scale", "setting": "Fibromyalgia; 100 mg/day added to fluoxetine, 25 to 28 before", "value": 16},
      {"measurement": "neck stiffness and systemic pain", "setting": "Fibromyalgia; 100 mg/day for one week, added to 60 mg/day fluoxetine", "value": "reduced neck stiffness and systemic pain"},
      {"measurement": "activity of daily living", "setting": "Fibromyalgia; 100 mg/day, after two weeks", "value": "improved drastically"},
      {"measurement": "evoked potential of hypothalamus by vestibular nuclei stimulation", "setting": "[4]", "value": "inhibited the evoked potential of hypothalamus by vestibular nuclei stimulation"},
      {"measurement": "emergence of nystagmus by experimental disorder of balance function", "setting": "[5]", "value": "inhibited the emergence of nystagmus by experimental disorder of balance function"}
    ]}
  ]
}
